# Results published in US20110172147A1, “NEUROPEPTIDE-2 RECEPTOR (Y-2R) AGONISTS” (priority 2009, published 2011).
# *1 amine or outer side, *2 acyl side, *3 side chain or, on linkers, in order; H or OH if unused. Where a SMILES comes first, the peptide text is derived from it. [ ]: non-standard residue; d: D form. The star is where a group is joined. CH3O(CH2CH2O)11CH2CH2CO = COCCOCCOCCOCCOCCOCCOCCOCCOCCOCCOCCOCCC(=O)*; X1 = O=C(Cn1cnc2ccc(N3CCN([*:1])CC3)cc2c1=O)[*:2]; Arachidoyl = CCCCCCCCCCCCCCCCCCCC(=O)*
# Tests used:
# Type in all cases: cell-based
# Y1R = target: T1, Y1R (Homo sapiens, UniProt P25929); assay: CaFlux Assay (FLIPR), Y1R
# T1 sequence (P25929 1-384): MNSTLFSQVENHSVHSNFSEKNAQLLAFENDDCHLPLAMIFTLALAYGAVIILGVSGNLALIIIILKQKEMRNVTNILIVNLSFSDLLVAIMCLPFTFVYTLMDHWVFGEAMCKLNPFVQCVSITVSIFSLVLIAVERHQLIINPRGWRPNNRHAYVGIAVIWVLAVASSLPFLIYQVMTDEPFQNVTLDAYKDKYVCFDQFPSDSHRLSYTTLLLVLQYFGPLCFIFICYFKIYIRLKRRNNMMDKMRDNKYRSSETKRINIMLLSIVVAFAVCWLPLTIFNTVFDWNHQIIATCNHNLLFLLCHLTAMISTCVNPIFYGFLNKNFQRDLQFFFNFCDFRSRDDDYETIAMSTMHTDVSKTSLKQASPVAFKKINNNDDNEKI
# Y5R = target: T2, Y5R (Homo sapiens, UniProt Q15761); assay: CaFlux Assay (FLIPR), Y5R
# T2 sequence (Q15761 1-445): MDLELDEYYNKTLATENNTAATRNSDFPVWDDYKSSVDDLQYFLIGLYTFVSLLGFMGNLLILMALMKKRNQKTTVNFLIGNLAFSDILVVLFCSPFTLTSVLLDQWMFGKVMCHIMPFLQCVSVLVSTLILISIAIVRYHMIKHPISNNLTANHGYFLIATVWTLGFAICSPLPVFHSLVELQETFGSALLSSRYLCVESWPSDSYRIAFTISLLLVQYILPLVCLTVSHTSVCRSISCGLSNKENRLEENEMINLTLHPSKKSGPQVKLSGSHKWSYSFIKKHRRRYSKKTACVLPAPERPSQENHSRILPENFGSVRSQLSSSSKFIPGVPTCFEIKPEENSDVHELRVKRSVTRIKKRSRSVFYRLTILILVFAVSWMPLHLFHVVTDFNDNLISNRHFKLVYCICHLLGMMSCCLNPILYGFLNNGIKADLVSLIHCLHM
# hNPY2R [1] = target: T3, hNPY2R (Homo sapiens, UniProt P49146); assay: CaFlux Assay (FLIPR), Y2R; design: expressed in transfected cells; host or cells: HEK-293 stably transfected with G protein chimera Gαqi9
# T3 sequence (P49146 1-381): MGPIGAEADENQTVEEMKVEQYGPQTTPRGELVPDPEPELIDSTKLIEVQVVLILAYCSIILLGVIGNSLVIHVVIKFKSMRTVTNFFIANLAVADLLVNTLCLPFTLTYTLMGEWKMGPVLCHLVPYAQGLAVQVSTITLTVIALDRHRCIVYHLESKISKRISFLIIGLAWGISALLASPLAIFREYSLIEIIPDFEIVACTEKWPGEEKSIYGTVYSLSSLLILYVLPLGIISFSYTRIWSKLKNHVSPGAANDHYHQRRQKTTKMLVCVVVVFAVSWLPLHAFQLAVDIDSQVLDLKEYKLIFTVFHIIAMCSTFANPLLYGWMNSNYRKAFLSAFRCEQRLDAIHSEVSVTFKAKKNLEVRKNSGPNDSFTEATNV
# Summary of the method: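 Read-out was the peak increase in Calcium-3 fluorescence on FLIPR, monitored 100 s after compound addition, with each well's pre-stimulation reading as zero and data given as % of the positive control's maximal response. Cells were HEK-293 stably carrying Gαqi9 plus receptor.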
# hNPY2R [2] = target: T3, hNPY2R; assay: cAMP Agonist Assay, HEK293/hNPY2R; design: expressed in transfected cells; host or cells: HEK293/hNPY2R (G418 selection)
# Summary of the method: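 Intracellular cAMP quantified by luminescent competitive ELISA after a 30 min room-temperature treatment of overnight-plated HEK293/hNPY2R cells with compound in medium containing 5 μM forskolin, 0.5 mM IBMX and 1.1% DMSO; four replicates per concentration.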
# Y4R = Y4R (Homo sapiens, UniProt P50391); assay: CaFlux Assay (FLIPR), Y4R
# Chain of Y4R (P50391 whole entry): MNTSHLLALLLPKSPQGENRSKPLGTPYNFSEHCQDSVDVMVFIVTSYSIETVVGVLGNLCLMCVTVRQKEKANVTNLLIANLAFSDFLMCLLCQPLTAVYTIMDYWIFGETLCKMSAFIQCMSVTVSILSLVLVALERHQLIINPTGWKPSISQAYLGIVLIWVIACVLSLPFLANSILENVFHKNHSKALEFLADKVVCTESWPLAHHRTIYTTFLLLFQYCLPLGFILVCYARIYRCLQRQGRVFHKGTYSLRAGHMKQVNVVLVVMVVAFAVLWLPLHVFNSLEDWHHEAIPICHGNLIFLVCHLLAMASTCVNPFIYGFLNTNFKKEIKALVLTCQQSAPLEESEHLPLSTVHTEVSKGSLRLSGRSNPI
Compound,EC50 (Y1R),EC50 (Y5R),EC50 (hNPY2R [1]),EC50 (hNPY2R [2]),EC50 (Y4R)
CCCCCCCCCCCCCCCC(=O)NCCCCCC(=O)NCCCC[C@H](NC(=O)[C@@H](NC(=O)CCOCCOCCOCCOCCOCCOCCOCCOCCOCCOCCOCCOCCOCCOCCOCCOCCOCCOCCOCCOCCOCCOCCOCCOC)[C@@H](C)CC)C(=O)N1CCN(c2ccc3ncn(CC(=O)N[C@@H](CCCNC(=N)N)C(=O)N[C@@H](Cc4c[nH]cn4)C(=O)N[C@@H](Cc4ccc(O)cc4)C(=O)N[C@@H](CC(C)C)C(=O)N[C@@H](CC(N)=O)C(=O)N[C@@H](Cc4c[nH]c5ccccc45)C(=O)N[C@H](C(=O)N[C@H](C(=O)N[C@@H](CCCNC(=N)N)C(=O)N[C@@H](CCC(N)=O)C(=O)N(C)[C@@H](CCCNC(=N)N)C(=O)N[C@@H](Cc4ccc(O)cc4)C(N)=O)[C@@H](C)O)C(C)C)c(=O)c3c2)CC1 [Example 11],> 5000 nM,915 nM,0.058 nM,0.08 nM,> 5000 nM
CCCCCCCCCCCCCCCCCCCC(=O)N[C@@H](CCC(=O)O)C(=O)N[C@@H](CCC(=O)O)C(=O)N[C@H](C(=O)N[C@@H](CCCCNC(=O)CCOCCOCCOCCOCCOCCOCCOCCOCCOCCOCCOCCOC)C(=O)N1CCN(c2ccc3ncn(CC(=O)N[C@@H](CCCNC(=N)N)C(=O)N[C@@H](Cc4c[nH]cn4)C(=O)N[C@@H](Cc4ccc(O)cc4)C(=O)N[C@@H](Cc4c[nH]cn4)C(=O)N[C@@H](CC(N)=O)C(=O)N[C@@H](Cc4c[nH]c5ccccc45)C(=O)N[C@H](C(=O)N[C@H](C(=O)N[C@@H](CCCNC(=N)N)C(=O)N[C@@H](CCC(N)=O)C(=O)N[C@@H](CCCNC(=N)N)C(=O)N[C@@H](Cc4ccc(O)cc4)C(N)=O)[C@@H](C)O)C(C)C)c(=O)c3c2)CC1)[C@@H](C)CC [Example 55] (Arachidoyl-EEIK(CH3O(CH2CH2O)11CH2CH2CO)[X1]RHYHNWVTRQRY-NH2),> 6000 nM,8.66 nM,0.027 nM,0.014 nM,> 6000 nM
CCCCCCCCCCCCCCCCCCCC(=O)N[C@@H](CCC(=O)N[C@@H](CCC(=O)N[C@H](C(=O)N[C@@H](CCCCNC(=O)CCOCCOCCOCCOCCOCCOCCOCCOCCOCCOCCOCCOCCOCCOCCOCCOC)C(=O)N1CCN(c2ccc3ncn(CC(=O)N[C@@H](CCCNC(=N)N)C(=O)N[C@@H](Cc4c[nH]cn4)C(=O)N[C@@H](Cc4ccc(O)cc4)C(=O)N[C@@H](CC(C)C)C(=O)N[C@@H](CC(N)=O)C(=O)N[C@@H](Cc4c[nH]c5ccccc45)C(=O)N[C@H](C(=O)N[C@H](C(=O)N[C@@H](CCCNC(=N)N)C(=O)N[C@@H](CCC(N)=O)C(=O)N(C)[C@@H](CCCNC(=N)N)C(=O)N[C@@H](Cc4ccc(O)cc4)C(N)=O)[C@@H](C)O)C(C)C)c(=O)c3c2)CC1)[C@@H](C)CC)C(=O)O)C(=O)O [Example 59],> 9000 nM,3880 nM,0.285 nM,0.29 nM,> 9000 nM
CCCCCCCCCCCCCCCC(=O)NCCCCCC(=O)NCCCC[C@H](NC(=O)[C@@H](NC(=O)CCOCCOCCOCCOCCOCCOCCOCCOC)[C@@H](C)CC)C(=O)N1CCN(c2ccc3ncn(CC(=O)N[C@@H](CCCNC(=N)N)C(=O)N[C@@H](Cc4c[nH]cn4)C(=O)N[C@@H](Cc4ccc(O)cc4)C(=O)N[C@@H](CC(C)C)C(=O)N[C@@H](CC(N)=O)C(=O)N[C@@H](Cc4c[nH]c5ccccc45)C(=O)N[C@H](C(=O)N[C@H](C(=O)N[C@@H](CCCNC(=N)N)C(=O)N[C@@H](CCC(N)=O)C(=O)N(C)[C@@H](CCCNC(=N)N)C(=O)N[C@@H](Cc4ccc(O)cc4)C(N)=O)[C@@H](C)O)C(C)C)c(=O)c3c2)CC1 [Example 8],> 5000 nM,1760 nM,0.033 nM,0.17 nM,> 5000 nM
CCCCCCCCCCCC(=O)NCCCCCC(=O)N[C@H](C(=O)N[C@@H](CCCCNC(=O)CCOCCOCCOCCOCCOCCOCCOCCOCCOCCOCCOCCOCCOCCOCCOCCOCCOCCOCCOCCOCCOCCOCCOCCOC)C(=O)N1CCN(c2ccc3ncn(CC(=O)N[C@@H](CCCNC(N)=O)C(=O)N[C@@H](Cc4c[nH]cn4)C(=O)N[C@@H](Cc4ccc(O)cc4)C(=O)N[C@@H](CC(C)C)C(=O)N[C@@H](CC(N)=O)C(=O)N[C@@H](Cc4c[nH]c5ccccc45)C(=O)N[C@H](C(=O)N[C@H](C(=O)N[C@@H](CCCNC(=N)N)C(=O)N[C@@H](CCC(N)=O)C(=O)N(C)[C@@H](CCCNC(=N)N)C(=O)N[C@@H](Cc4ccc(O)cc4)C(N)=O)[C@@H](C)O)C(C)C)c(=O)c3c2)CC1)[C@@H](C)CC [Example 36],> 6000 nM,> 6000 nM,0.388 nM,12.7 nM,> 6000 nM
CCCCCCCCCCCCCCCCCCCC(=O)N[C@@H](CCC(=O)N[C@@H](CCC(=O)NCCCC[C@H](NC(=O)[C@@H](NC(=O)CCOCCOCCOCCOCCOCCOCCOCCOC)[C@@H](C)CC)C(=O)N1CCN(c2ccc3ncn(CC(=O)N[C@@H](CCCNC(=N)N)C(=O)N[C@@H](Cc4c[nH]cn4)C(=O)N[C@@H](Cc4ccc(O)cc4)C(=O)N[C@@H](CC(C)C)C(=O)N[C@@H](CC(N)=O)C(=O)N[C@@H](Cc4c[nH]c5ccccc45)C(=O)N[C@H](C(=O)N[C@H](C(=O)N[C@@H](CCCNC(=N)N)C(=O)N[C@@H](CCC(N)=O)C(=O)N(C)[C@@H](CCCNC(=N)N)C(=O)N[C@@H](Cc4ccc(O)cc4)C(N)=O)[C@@H](C)O)C(C)C)c(=O)c3c2)CC1)C(=O)O)C(=O)O [Example 23],> 9000 nM,2210 nM,0.295 nM,0.05 nM,> 9000 nM
CCCCCCCCCCCCCCCC(=O)NCCCCCC(=O)NCCCC[C@H](NC(=O)[C@@H](NC(=O)COCCOCCOCCOCCOCCOC)[C@@H](C)CC)C(=O)N1CCN(c2ccc3ncn(CC(=O)N[C@@H](CCCNC(=N)N)C(=O)N[C@@H](Cc4c[nH]cn4)C(=O)N[C@@H](Cc4ccc(O)cc4)C(=O)N[C@@H](CC(C)C)C(=O)N[C@@H](CC(N)=O)C(=O)N[C@@H](Cc4c[nH]c5ccccc45)C(=O)N[C@H](C(=O)N[C@H](C(=O)N[C@@H](CCCNC(=N)N)C(=O)N[C@@H](CCC(N)=O)C(=O)N(C)[C@@H](CCCNC(=N)N)C(=O)N[C@@H](Cc4ccc(O)cc4)C(N)=O)[C@@H](C)O)C(C)C)c(=O)c3c2)CC1 [Example 7],> 5000 nM,1130 nM,0.044 nM,0.16 nM,> 5000 nM
CCCCCCCCCCCCCCCC(=O)NCCCCCC(=O)NCCCCCC(=O)N[C@H](C(=O)N[C@@H](CCCCNC(=O)CCOCCOCCOCCOCCOCCOCCOCCOCCOCCOCCOCCOCCOCCOCCOCCOCCOCCOCCOCCOCCOCCOCCOCCOC)C(=O)N1CCN(c2ccc3ncn(CC(=O)N[C@@H](CCCNC(=N)N)C(=O)N[C@@H](Cc4c[nH]cn4)C(=O)N[C@@H](Cc4ccc(O)cc4)C(=O)N[C@@H](CC(C)C)C(=O)N[C@@H](CC(N)=O)C(=O)N[C@@H](Cc4c[nH]c5ccccc45)C(=O)N[C@H](C(=O)N[C@H](C(=O)N[C@@H](CCCNC(=N)N)C(=O)N[C@@H](CCC(N)=O)C(=O)N(C)[C@@H](CCCNC(=N)N)C(=O)N[C@@H](Cc4ccc(O)cc4)C(N)=O)[C@@H](C)O)C(C)C)c(=O)c3c2)CC1)[C@@H](C)CC [Example 42],> 6000 nM,815 nM,0.069 nM,0.13 nM,> 6000 nM
